Assay results as given in US8618163B2, “Derivatives of cycloalkyl- and cycloalkenyl-1,2-dicarboxylic acid compounds having formyl peptide receptor like-1 (FPRL-1) agonist or antagonist activity” (Allergan, Inc., priority 2010, dated 2013).
Read-outs that look alike come from different tables or passages of the source. One block for each compound: values may come before it.

Legend:
FPRL1 = target: T1, FPRL1 (Homo sapiens, UniProt P25090); experiment: compound-induced calcium activity on FLIPR Tetra in CHO-Gal6 cells stably expressing FPRL1; type: cell-based; settings: for EC50: read-out: FPRL1 EC50; for FPRL1 (rel. eff.): relative efficacy
T1 construct: expressed in transfected cells; host or cells: CHO-Gal6 (CHO cells with G alpha 16)
T1 sequence (P25090 1-351): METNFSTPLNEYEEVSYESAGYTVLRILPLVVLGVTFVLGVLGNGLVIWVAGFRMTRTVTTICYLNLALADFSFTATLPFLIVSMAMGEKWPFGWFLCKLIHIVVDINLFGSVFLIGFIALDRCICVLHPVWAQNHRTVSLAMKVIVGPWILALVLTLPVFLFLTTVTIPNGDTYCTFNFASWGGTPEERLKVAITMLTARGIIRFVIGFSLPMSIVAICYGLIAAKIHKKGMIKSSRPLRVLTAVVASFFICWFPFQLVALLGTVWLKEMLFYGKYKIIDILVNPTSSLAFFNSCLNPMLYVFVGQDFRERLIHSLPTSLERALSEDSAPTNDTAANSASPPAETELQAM
Description: (§1) CHO-Gal6 cells stably expressing FPRL1 were cultured in (F12, 10% FBS, 1% PSA, 400 μg/ml geneticin and 50 μg/ml hygromycin) and HEK-Gqi5 cells stable expressing FPR1 were cultured in (DMEM high glucose, 10% FBS, 1% PSA, 400 μg/ml geneticin and 50 μg/ml hygromycin). In general, the day before the experiment, 18,000 cells/well were plated in a 384-well clear bottom poly-d-lysine coated plate. The following day the screening compound-induced calcium activity was assayed on the FLIPR^Tetra. The drug plates were prepared in 384-well microplates using the EP3 and the MultiPROBE robotic liquid handling systems. Compounds were tested at concentrations ranging from 0.61 to 10,000 nM. Results are expressed as EC50 (nM) and efficacy values.

FPR1 = target: T2, FPR1 (Homo sapiens, UniProt P21462); experiment: compound-induced calcium activity on FLIPR Tetra in HEK-Gqi5 cells stable expressing FPR1; type: cell-based; parameters: FPR1 (rel. eff.): scale not given here; settings: for FPR1 (rel. eff.): relative efficacy
T2 construct: expressed in transfected cells; host or cells: HEK-Gqi5 (HEK cells with chimeric G protein Gqi5)
T2 sequence (P21462 1-350): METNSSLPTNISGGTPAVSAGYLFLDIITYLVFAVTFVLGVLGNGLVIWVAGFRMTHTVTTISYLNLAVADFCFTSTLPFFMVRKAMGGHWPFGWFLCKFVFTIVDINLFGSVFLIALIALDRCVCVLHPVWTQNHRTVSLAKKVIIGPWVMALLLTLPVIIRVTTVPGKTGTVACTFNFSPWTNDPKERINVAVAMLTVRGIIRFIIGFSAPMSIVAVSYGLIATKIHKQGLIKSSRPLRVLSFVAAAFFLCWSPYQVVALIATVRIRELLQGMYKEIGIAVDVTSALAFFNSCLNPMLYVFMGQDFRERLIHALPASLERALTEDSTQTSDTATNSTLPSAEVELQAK
Description: as §1

[1] = calcium, FLIPR Tetra, tested 0.61 to 10,000 nM
[2] = class symbol NA, read-out: FPR1 EC50 (NA = Not Active)
[3] = calcium, FLIPR Tetra, tested 0.61 to 10,000 nM, read-out: FPR1 EC50

Compound: CC(C)c1ccc(NC(=O)C2C(C(=O)O)C3C=CC2C32CC2)cc1 (racemic) [Compound 6, (+/−)-(1S,4R,5S,6R)-6-(4-Isopropylphenylcarbamoyl)spiro[bicyclo[2.2.1]hept[2]ene-7,1′-cyclopropane]-5-carboxylic Acid]
- FPRL1 (rel. eff.) (FPRL1; calcium, FLIPR Tetra): ND (0.39)
- EC50 (FPR1; [2]): > 10000 nM

Compound: O=C(O)[C@@H]1[C@H](C(=O)Nc2ccc(Cl)cc2)[C@@H]2CC[C@H]1C21CC1 (racemic) [Compound 11, (+/−)-(1R,2S,3R,4S)-3-(4-Chlorophenylcarbamoyl)spiro[bicyclo[2.2.1]heptane-7,1′-cyclopropane]-2-carboxylic Acid]
- EC50 (FPRL1; [1]): 0.043 µM
- FPRL1 (rel. eff.) (FPRL1; calcium, FLIPR Tetra): 0.86

Compound: O=C(O)[C@@H]1[C@H](C(=O)Nc2ccc(Cl)c(Cl)c2)[C@@H]2CC[C@H]1C21CC1 (racemic) [Compound 38, (+/−)-(1R,2S,3R,4S)-3-((3,4-Dichlorophenyl)carbamoyl)spiro[bicyclo[2.2.1]heptane-7,1′-cyclopropane]-2-carboxylic Acid]
- EC50 (FPRL1; [1]): 0.498 µM
- FPRL1 (rel. eff.) (FPRL1; calcium, FLIPR Tetra): 1.00

Compound: COC(=O)C1C(C(=O)Nc2ccc(I)cc2)C2C=CC1C21CC1 (racemic) [Compound 16, Methyl(+/−)-(1S,4R,5S,6R)-6-(4-Iodophenylcarbamoyl)spiro[bicyclo[2.2.1]hept[2]ene-7,1′-cyclopropane]-5-carboxylate]
- EC50 (FPRL1; [1]): 0.403 µM
- FPRL1 (rel. eff.) (FPRL1; calcium, FLIPR Tetra): 0.72

Compound: CC(C)=C1C2C=CC1C(C(=O)Nc1ccc(I)cc1)C2C(=O)O (racemic) [Compound 22, (+/−)-(1S,4R,5S,6R)-6-(4-Iodophenylcarbamoyl)[bicyclo[2.2.1]hept[2]ene-7-propan-2-ylidene]-5-carboxylic Acid]
- EC50 (FPR1; [3]): 8030 nM
- FPR1 (rel. eff.) (FPR1; calcium, FLIPR Tetra): 62

Compound: N#Cc1ccc(-c2ccc(NC(=O)C3C(C(=O)O)C4C=CC3C43CC3)cc2)cc1 (racemic) [Compound 30, (+/−)-(1S,4R,5S,6R)-6-((4′-Cyano-[1,1′-biphenyl]-4-yl)carbamoyl)spiro[bicyclo-[2.2.1]hept[2]ene-7,1′-cyclopropane]-5-carboxylic Acid]
- EC50 (FPRL1; [1]): 2.88 µM
- FPRL1 (rel. eff.) (FPRL1; calcium, FLIPR Tetra): 0.97

Compound: CC1(C)[C@@H]2CC[C@H]1[C@@H](C(=O)Nc1ccc(I)cc1)[C@H]2C(=O)O (racemic) [Compound 12, (+/−)-(1R,2S,3R,4S)-3-(4-Iodophenylcarbamoyl)-7,7-dimethylbicyclo[2.2.1]heptane-2-carboxylic Acid]
- EC50 (FPR1; [3]): 343 nM
- FPR1 (rel. eff.) (FPR1; calcium, FLIPR Tetra): 68

Compound: O=C(O)C1C(C(=O)Nc2cccc(C(F)(F)F)c2)C2CCC1C21CC1 (racemic) [Compound 37, (+/−)-(1R,2S,3R,4S)-3-β3-(Trifluoromethyl)phenyl)carbamoyl)spiro[bicyclo-[2.2.1]heptane-7,1′-cyclopropane]-2-carboxylic Acid]
- EC50 (FPRL1; [1]): 0.978 µM
- FPRL1 (rel. eff.) (FPRL1; calcium, FLIPR Tetra): 0.86

Compound: COc1ccccc1NC(=O)C1C(C(=O)O)C2C=CC1C21CC1 (racemic) [Compound 29, (+/−)-(1S,4R,5S,6R)-6-((2-Methoxyphenyl)carbamoyl)spiro[bicyclo[2.2.1]hept[2]ene-7,1′-cyclopropane]-5-carboxylic Acid]
- EC50 (FPRL1; [1]): 3.17 µM
- FPRL1 (rel. eff.) (FPRL1; calcium, FLIPR Tetra): 1.1

Results, then the compound that gave them:

- EC50 (FPRL1; [1]): 0.0157 µM
- FPRL1 (rel. eff.) (FPRL1; calcium, FLIPR Tetra): 0.91
- EC50 (FPR1; [2]): > 10000 nM
Compound: CSc1ccc(NC(=O)[C@H]2[C@@H](C(N)=O)[C@H]3CC[C@@H]2C32CC2)cc1 (racemic) [Compound 67, (+/−)-(1S,2R,3S,4R)—N^2-(4-(Methylthio)phenyl)-spiro[bicyclo[2.2.1]heptane-7,1′-cyclopropane]-2,3-dicarboxamide]

- EC50 (FPRL1; in μM): > 10 µM
- FPRL1 (rel. eff.) (FPRL1; calcium, FLIPR Tetra): 0.76
- EC50 (FPR1; [2]): > 10000 nM
Compound: O=C(Nc1ccc(Br)cc1)[C@H]1[C@@H](CO)[C@H]2CC[C@@H]1C21CC1 (racemic) [Compound 59, (+/−)-(1S,2R,3S,4R)—N-(4-Bromophenyl)-3-(hydroxymethyl)spiro[bicyclo[2.2.1]-heptane-7,1′-cyclopropane]-2-carboxamide]

- EC50 (FPRL1; [1]): 0.0508 µM
- FPRL1 (rel. eff.) (FPRL1; calcium, FLIPR Tetra): 0.79
- EC50 (FPR1; [2]): > 10000 nM
Compound: CCc1ccc(NC(=O)C2C(C(N)=O)C3C=CC2C32CC2)cc1 (racemic) [Compound 66, (+/−)-(1R,4S,5R,6S)—N^5-(4-Ethylphenyl)spiro[bicyclo[2.2.1]hept[2]ene-7,1′-cyclopropane]-5,6-dicarboxamide]

- EC50 (FPRL1; [1]): 0.0125 µM
- FPRL1 (rel. eff.) (FPRL1; calcium, FLIPR Tetra): 0.95
- EC50 (FPR1; [2]): > 10000 nM
Compound: CCNC(=O)[C@@H]1[C@H](C(=O)Nc2ccc(Br)cc2)[C@@H]2CC[C@H]1C21CC1 (racemic) [Compound 78, (+/−)-(1S,2R,3S,4R)—N^2-(4-Bromophenyl)-N^3-ethylspiro[bicyclo[2.2.1]heptane-7,1′-cyclopropane]-2,3-dicarboxamide]

- EC50 (FPRL1; [1]): 1.68 µM
- FPRL1 (rel. eff.) (FPRL1; calcium, FLIPR Tetra): 0.68
Compound: COC(=O)C1C(C(=O)Nc2ccc(Br)cc2)C2CCC1C21CC1 (racemic) [Compound 83, (+/−)-(1S,4S,5R,6S)-Methyl 2-((4-bromophenyl)carbamoyl)spiro[bicyclo[2.2.1]heptane-7,1′-cyclopropane]-3-carboxylate]

- EC50 (FPR1; [2]): > 10000 nM
Compound: NC(=O)C1C(C(=O)Nc2ccc(Br)cc2)C2C=CC1C21CC1 (racemic) [Compound 47, (+/−)-(1R,4S,5R,6S)—N-5-(4-Bromophenyl)spiro[bicyclo[2.2.1]hept[2]ene-7,1′-cyclopropane]-5,6-dicarboxamide]

- EC50 (FPR1; [2]): > 10000 nM
Compound: (+/−)-(1R,2S,3R,4S)-3-((4-(Methylsulfonyl)phenyl)carbamoyl)spiro[bicyclo[2.2.1]-heptane-7,1′-cyclopropane]-2-carboxylic Acid [Compound 71]

- EC50 (FPRL1; [1]): 6.56 µM
- FPRL1 (rel. eff.) (FPRL1; calcium, FLIPR Tetra): 0.38
Compound: O=C1[C@@H]2[C@H](C(=O)N1c1ccc(Br)cc1)[C@@H]1CC[C@H]2C12CC2 [Compound 90, (3aR,4S,7R,7aS)-2-(4-Bromophenyl)-hexahydro-1H-spiro[4,7-methanoisoindole-8,1′-cyclopropane]-1,3(2H)-dione]

- EC50 (FPRL1; [1]): 3.72 µM
- FPRL1 (rel. eff.) (FPRL1; calcium, FLIPR Tetra): 0.5
Compound: CN(C)C(=O)C1C(C(=O)Nc2ccc(Br)cc2)C2C=CC1C21CC1 (racemic) [Compound 76, (+/−)-(1S,4S,5R,6S)—N^5-(4-Bromophenyl)-N^6,N^6-dimethylspiro[bicyclo[2.2.1]hept[2]ene]-7,1′-cyclopropane]-5,6-dicarboxamide]

- EC50 (FPRL1; [1]): > 3 µM
- FPRL1 (rel. eff.) (FPRL1; calcium, FLIPR Tetra): 1.2
Compound: COc1ccccc1NC(=O)[C@H]1[C@@H](C(=O)O)[C@H]2CC[C@@H]1C21CC1 (racemic) [Compound 39, (+/−)-(1R,2S,3R,4S)-3-((2-Methoxyphenyl)carbamoyl)spiro[bicyclo[2.2.1]heptane-7,1′-cyclopropane]-2-carboxylic Acid]

- EC50 (FPR1; [2]): > 10000 nM
Compound: CC1(C)[C@@H]2CC[C@H]1[C@@H](C(=O)Nc1ccc(Br)cc1)[C@H]2C(N)=O (racemic) [Compound 54, (+/−)-(1S,2R,3S,4R)—N2-(4-Bromophenyl)-7,7-dimethylbicyclo[2.2.1]heptane-2,3-dicarboxamide]

- EC50 (FPRL1; [1]): 1.37 µM
- FPRL1 (rel. eff.) (FPRL1; calcium, FLIPR Tetra): 0.74
Compound: CCOC(=O)[C@@H]1[C@H](C(=O)Nc2ccc(Br)cc2)[C@@H]2CC[C@H]1C21CC1 (racemic) [Compound 84, (+/−)-(1S,2R,3S,4R)-Ethyl 2-((4-bromophenyl)carbamoyl)spiro[bicyclo[2.2.1]heptane-7,1′-cyclopropane]-3-carboxylate]
